Measurements published in PubChem BioAssay AID248 (DTP/NCI, 2004).
Where “and” joins values, the source holds several entries; their conditions need not be identical. Identical values can stand only once. Inconclusive results and toxic doses are left out. Rule as the data show it: active = T/C of 150% or more; inactive = T/C below 125%.

System: L1210 leukemia ip in BDF1 mice, survival T/C
Test: NCI In Vivo Anticancer Drug Screen. Data for tumor model L1210 Leukemia (intraperitoneal) in B6D2F1 (BDF1) mice
Conditions: endpoint: mean survival time, higher = longer survival
Procedure, shortened: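 Transplanted-tumor mice were given test agent; controls received vehicle only. Survival readings from the two groups were divided (treated over control).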

[1] = dose: 100.0 mg/kg/injection, schedule: Q01DX009 (ip), vehicle: saline with Tween-80
[2] = dose: 100.0 mg/kg/injection, schedule: Q04DX003 (ip), vehicle: saline with Tween-80
[3] = dose: 100.0 mg/kg/injection, schedule: Q04DX003 (ip), vehicle: Klucel (hydroxypropylcellulose) (HPC)
[4] = dose: 200.0 mg/kg/injection, schedule: Q04DX003 (ip), vehicle: Klucel (hydroxypropylcellulose) (HPC)
[5] = dose: 100.0 mg/kg/injection, schedule: Q01DX001 (ip), vehicle: saline with Tween-80
[6] = dose: 200.0 mg/kg/injection, schedule: Q01DX001 (ip), vehicle: saline with Tween-80
[7] = dose: 50.0 mg/kg/injection, schedule: Q01DX001 (ip), vehicle: saline
[8] = dose: 100.0 mg/kg/injection, schedule: Q01DX001 (ip), vehicle: saline
[9] = dose: 200.0 mg/kg/injection, schedule: Q01DX001 (ip), vehicle: saline
[10] = dose: 400.0 mg/kg/injection, schedule: Q01DX001 (ip), vehicle: saline

Measured: T/C

O=S(=O)(/C=C/c1ccccc1)c1ccc2ccccc2c1
inactive: dose: 100.0 mg/kg/injection, schedule: Q01DX001 (ip), vehicle: acetone 97 % of control | dose: 100.0 mg/kg/injection, schedule: Q01DX009 (ip), vehicle: acetone 92 % of control | dose: 100.0 mg/kg/injection, schedule: Q04DX003 (ip), vehicle: acetone 102 % of control | dose: 200.0 mg/kg/injection, schedule: Q01DX001 (ip), vehicle: acetone 93 % of control | dose: 200.0 mg/kg/injection, schedule: Q01DX009 (ip), vehicle: acetone 92 % of control | dose: 200.0 mg/kg/injection, schedule: Q04DX003 (ip), vehicle: acetone 105 % of control | dose: 400.0 mg/kg/injection, schedule: Q01DX001 (ip), vehicle: acetone 90 % of control | dose: 400.0 mg/kg/injection, schedule: Q01DX009 (ip), vehicle: acetone 94 % of control | dose: 400.0 mg/kg/injection, schedule: Q04DX003 (ip), vehicle: acetone 102 % of control

CCC(C(O)c1ccccc1)C(O)(C(F)(F)F)C(F)(F)F (stereo not drawn)
inactive: dose: 75.0 mg/kg/injection, schedule: Q01DX009 (ip), vehicle: saline with Tween-80 100 % of control | dose: 150.0 mg/kg/injection, schedule: Q01DX009 (ip), vehicle: saline with Tween-80 106 % of control | dose: 300.0 mg/kg/injection, schedule: Q01DX009 (ip), vehicle: saline with Tween-80 103 % of control

CC(=O)c1ccccc1OCC(O)CN1CCN(c2ccccc2)CC1 (stereo not drawn)
inactive: dose: 25.0 mg/kg/injection, schedule: Q01DX009 (ip), vehicle: saline with Tween-80 94 % of control | dose: 25.0 mg/kg/injection, schedule: Q04DX003 (ip), vehicle: saline with Tween-80 100 % of control | dose: 50.0 mg/kg/injection, schedule: Q01DX009 (ip), vehicle: saline with Tween-80 101 % of control | dose: 50.0 mg/kg/injection, schedule: Q04DX003 (ip), vehicle: saline with Tween-80 103 % of control | [1] 101 % of control | [2] 97 % of control

CCS/C(Cl)=C(\Cl)SCC
inactive: dose: 25.0 mg/kg/injection, schedule: Q01DX009 (ip), vehicle: Klucel (hydroxypropylcellulose) (HPC) 101 % of control | dose: 50.0 mg/kg/injection, schedule: Q01DX009 (ip), vehicle: Klucel (hydroxypropylcellulose) (HPC) 106 % of control | dose: 100.0 mg/kg/injection, schedule: Q01DX009 (ip), vehicle: Klucel (hydroxypropylcellulose) (HPC) 102 % of control and 109 % of control

O=C(O)CNC(=O)c1cccc([N+](=O)[O-])c1
inactive: [3] 99 % of control | [4] 101 % of control | dose: 400.0 mg/kg/injection, schedule: Q04DX003 (ip), vehicle: Klucel (hydroxypropylcellulose) (HPC) 94 % of control

O=C(CCl)N(O)c1ccccc1OCc1ccccc1
inactive: dose: 100.0 mg/kg/injection, schedule: Q04DX003 (ip), vehicle: carboxymethylcellulose (CMC) 91 % of control | dose: 200.0 mg/kg/injection, schedule: Q04DX003 (ip), vehicle: carboxymethylcellulose (CMC) 102 % of control

CC1(C)CN(C(C)(C)C)CC(C)(C)C(O)C1=O (stereo not drawn)
inactive: [5] 96 % of control | [6] 91 % of control | dose: 400.0 mg/kg/injection, schedule: Q01DX001 (ip), vehicle: saline with Tween-80 93 % of control

CC(C)(C)OC(=O)NNC(=O)c1ccc([N+](=O)[O-])cc1
inactive: dose: 4.12 mg/kg/injection, schedule: Q01DX009 (ip), vehicle: Klucel (hydroxypropylcellulose) (HPC) 118 % of control | dose: 4.12 mg/kg/injection, schedule: Q01DX009 (ip), vehicle: saline 92 % of control | dose: 6.25 mg/kg/injection, schedule: Q01DX009 (ip), vehicle: Klucel (hydroxypropylcellulose) (HPC) 124 % of control | dose: 6.25 mg/kg/injection, schedule: Q01DX009 (ip), vehicle: saline 96 % of control | dose: 9.37 mg/kg/injection, schedule: Q01DX009 (ip), vehicle: Klucel (hydroxypropylcellulose) (HPC) 100 % of control | dose: 9.37 mg/kg/injection, schedule: Q01DX009 (ip), vehicle: saline 94 % of control | dose: 35.0 mg/kg/injection, schedule: Q01DX009 (ip), vehicle: saline 121 % of control | dose: 50.0 mg/kg/injection, schedule: Q04DX003 (ip), vehicle: Klucel (hydroxypropylcellulose) (HPC) 96 % of control | dose: 55.0 mg/kg/injection, schedule: Q01DX009 (ip), vehicle: saline 102 % of control | dose: 80.0 mg/kg/injection, schedule: Q01DX009 (ip), vehicle: saline 105 % of control | dose: 100.0 mg/kg/injection, schedule: Q01DX001 (ip), vehicle: other 102 % of control | [3] 93 % of control | dose: 120.0 mg/kg/injection, schedule: Q01DX009 (ip), vehicle: Klucel (hydroxypropylcellulose) (HPC) 92 % of control | dose: 180.0 mg/kg/injection, schedule: Q01DX009 (ip), vehicle: Klucel (hydroxypropylcellulose) (HPC) 97 % of control | dose: 200.0 mg/kg/injection, schedule: Q01DX001 (ip), vehicle: other 95 % of control | [4] 91 % of control

NC(=S)NN=C1CCCCCCCCCC1
inactive: [7] 101 % of control | [8] 101 % of control | [9] 97 % of control | [10] 106 % of control

CCCC(OC(C)=O)C(C)[N+](=O)[O-] (stereo not drawn)
inactive: dose: 50.0 mg/kg/injection, schedule: Q01DX001 (ip), vehicle: saline with Tween-80 96 % of control | [5] 92 % of control | [6] 103 % of control

O=c1[nH]c(CCCc2ccccc2)c(Br)c(=O)[nH]1
inactive: dose: 100.0 mg/kg/injection, schedule: Q04DX002 (ip), vehicle: Klucel (hydroxypropylcellulose) (HPC) 100 % of control | dose: 200.0 mg/kg/injection, schedule: Q04DX002 (ip), vehicle: Klucel (hydroxypropylcellulose) (HPC) 100 % of control | dose: 400.0 mg/kg/injection, schedule: Q04DX002 (ip), vehicle: Klucel (hydroxypropylcellulose) (HPC) 92 % of control

O=C(COC(=O)c1ccccc1C(=O)c1ccccc1O)c1ccc(-c2ccccc2)cc1
inactive: [9] 91 % of control | [10] 91 % of control

CCCCCCC(O)CCCCCCCCCCC(=O)O (stereo not drawn)
inactive: [1] 106 % of control | dose: 200.0 mg/kg/injection, schedule: Q01DX009 (ip), vehicle: saline with Tween-80 93 % of control | dose: 400.0 mg/kg/injection, schedule: Q01DX009 (ip), vehicle: saline with Tween-80 88 % of control

O=C(Cl)C1C2C=CC(C2)C1C(=O)Cl (stereo not drawn)
inactive: [7] 108 % of control | [8] 97 % of control

CC(C)(C)CC(C)(C)c1ccc(OCCOc2ccc(C(=O)Nc3ccc(NC(=O)c4ccc5ccccc5c4O)cc3)cc2)cc1
inactive: [2] 105 % of control | dose: 200.0 mg/kg/injection, schedule: Q04DX003 (ip), vehicle: saline with Tween-80 90 % of control | dose: 400.0 mg/kg/injection, schedule: Q04DX003 (ip), vehicle: saline with Tween-80 90 % of control

N#C[CH2][Sn]([c]1ccccc1)([c]1ccccc1)[c]1ccccc1
inactive: dose: 12.5 mg/kg/injection, schedule: Q04DX002 (ip), vehicle: saline with Tween-80 100 % of control | dose: 25.0 mg/kg/injection, schedule: Q04DX002 (ip), vehicle: saline with Tween-80 96 % of control | dose: 50.0 mg/kg/injection, schedule: Q04DX002 (ip), vehicle: saline with Tween-80 93 % of control

COc1ccc(OC)c(NC(=O)Nc2cccc(F)c2)c1
inactive: dose: 100.0 mg/kg/injection, schedule: Q01DX009 (ip), vehicle: gum acacia 90 % of control | dose: 200.0 mg/kg/injection, schedule: Q01DX009 (ip), vehicle: gum acacia 92 % of control

CCCC/C=C\C=C\CCCC
inactive: dose: 100.0 mg/kg/injection, schedule: Q04DX003 (ip), vehicle: saline 95 % of control | dose: 200.0 mg/kg/injection, schedule: Q04DX003 (ip), vehicle: saline 103 % of control | dose: 400.0 mg/kg/injection, schedule: Q04DX003 (ip), vehicle: saline 97 % of control
